Experimental data published in ChEMBL document CHEMBL1201862, “PubChem BioAssay data set” (2004).
Where a name gives a salt, the structure may show the parent alone.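 Cells were grown in 96-well plates and exposed to each compound for 48 hours at five concentrations; endpoints were interpolated linearly between bracketing concentrations, or set to the highest concentration if not reached. GI50 is the concentration that inhibits growth by half.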 The source made the active and inactive calls. No stated cut-off is given here; in the data, active = GI50 up to about 1.1 µM and inactive = higher.

Tests used:
Experiment in all cases: inhibition of tumour cell growth, NCI panel, 48 h
SF-295 = system: SF-295
K562 = system: K562
IGROV-1 = system: IGROV-1
HCC 2998 = system: HCC 2998
LOX IMVI = system: LOX IMVI
NCI-H226 = system: NCI-H226
COLO 205 = system: COLO 205
HCT-116 = system: HCT-116
RPMI-8226 = system: RPMI-8226
MOLT-4 = system: MOLT-4
NCI-H460 = system: NCI-H460
SNB-19 = system: SNB-19
SK-MEL-28 = system: SK-MEL-28
KM12 = system: KM12
SN12C = system: SN12C
NCI-H522 = system: NCI-H522
A549 = system: A549
UO-31 = system: UO-31
SW-620 = system: SW-620
SR = system: SR

Measured: GI50

Cc1nnc2sc(Cl)nn12
inactive: SF-295 17.7 µM | K562 8.05 µM | IGROV-1 16.4 µM | HCC 2998 15.5 µM | LOX IMVI 10 µM | NCI-H226 28.6 µM | COLO 205 14.5 µM | HCT-116 8.95 µM | RPMI-8226 6.1 µM | MOLT-4 5.65 µM | NCI-H460 18.5 µM | SNB-19 44.8 µM | SK-MEL-28 19.4 µM | KM12 14.5 µM | SN12C 32.4 µM | NCI-H522 10 µM | A549 26.1 µM | UO-31 29.6 µM | SW-620 3.92 µM

N/C(=N\OC(=O)NC(Cl)=C(Cl)Cl)c1cc(C(F)(F)F)cc(C(F)(F)F)c1
inactive: SF-295 17.5 µM | IGROV-1 25.8 µM | HCC 2998 12.5 µM | LOX IMVI 16.3 µM | NCI-H226 22.1 µM | COLO 205 15.7 µM | HCT-116 18.6 µM | RPMI-8226 12.5 µM | MOLT-4 9.48 µM | NCI-H460 18.8 µM | SNB-19 18.7 µM | SR 10.7 µM | SK-MEL-28 17.4 µM | KM12 15.8 µM | SN12C 24.3 µM | A549 15.3 µM | UO-31 18 µM | SW-620 18.9 µM

O=c1[nH]cnc2c1nnn2C1C=C(CO)C(O)C1O (configuration not stated)
inactive: SF-295 > 100 µM | K562 > 100 µM | IGROV-1 > 100 µM | HCC 2998 > 100 µM | LOX IMVI 30.8 µM | NCI-H226 > 100 µM | COLO 205 > 100 µM | HCT-116 53.7 µM | RPMI-8226 > 100 µM | MOLT-4 > 100 µM | NCI-H460 > 100 µM | SNB-19 > 100 µM | SR > 100 µM | SK-MEL-28 > 100 µM | KM12 > 100 µM | SN12C > 100 µM | A549 > 100 µM | UO-31 > 100 µM | SW-620 > 10 µM

Cc1ccc(S(=O)(=O)OCC23CCC(C4CC42)C2CC23)cc1 (configuration not stated)
inactive: SF-295 50.8 µM | K562 52.4 µM | IGROV-1 > 100 µM | HCC 2998 > 100 µM | LOX IMVI > 100 µM | NCI-H226 95.7 µM | COLO 205 95.9 µM | HCT-116 87.7 µM | RPMI-8226 36.3 µM | MOLT-4 50.8 µM | NCI-H460 88.1 µM | SNB-19 > 100 µM | SR 38.5 µM | SK-MEL-28 > 100 µM | SN12C > 100 µM | A549 80.4 µM | UO-31 44.2 µM | SW-620 > 100 µM

C[C@]12CCC3[C@@H](CC[C@@H]4c5nonc5CC[C@]34C)C1CC[C@@H]2O (some centres not stated)
inactive: SF-295 34.8 µM | K562 34.3 µM | IGROV-1 41.8 µM | HCC 2998 31.8 µM | LOX IMVI 19.6 µM | NCI-H226 38.3 µM | COLO 205 30.4 µM | RPMI-8226 14.5 µM | MOLT-4 23.3 µM | NCI-H460 25.9 µM | SNB-19 41.6 µM | SK-MEL-28 21.1 µM | KM12 37.8 µM | SN12C 22.1 µM | NCI-H522 17.8 µM | A549 25.5 µM | UO-31 > 10 µM | SW-620 29.3 µM

O=C(O)C1C2C=CC(C2)C1c1ccccc1 (configuration not stated)
inactive: SF-295 > 100 µM | K562 > 100 µM | HCC 2998 > 100 µM | LOX IMVI > 100 µM | NCI-H226 > 100 µM | COLO 205 > 100 µM | HCT-116 > 100 µM | RPMI-8226 > 100 µM | MOLT-4 > 100 µM | NCI-H460 > 100 µM | SNB-19 > 100 µM | SR > 100 µM | SK-MEL-28 > 100 µM | KM12 > 100 µM | SN12C > 100 µM | A549 > 100 µM | UO-31 > 100 µM | SW-620 > 100 µM

CCOC(=O)C(C(=O)c1ccccc1-c1ccccc1C(=O)O)=P(c1ccccc1)(c1ccccc1)c1ccccc1
inactive: SF-295 31.9 µM | K562 20 µM | IGROV-1 20.6 µM | HCC 2998 22.3 µM | LOX IMVI 20.3 µM | NCI-H226 24.4 µM | COLO 205 19.1 µM | HCT-116 18.7 µM | RPMI-8226 13.9 µM | MOLT-4 24.2 µM | NCI-H460 16.5 µM | SNB-19 25.8 µM | SR 23.6 µM | SK-MEL-28 18.7 µM | SN12C 30.5 µM | A549 17.8 µM | UO-31 > 10 µM | SW-620 31.3 µM

CC1(C)[C@H]2CC[C@]1(C)[C@H](OC(=O)NNC(=O)O[C@@H]1C[C@@H]3CC[C@@]1(C)C3(C)C)C2
inactive: SF-295 13.8 µM | K562 3.35 µM | IGROV-1 15.4 µM | HCC 2998 14.1 µM | LOX IMVI 26.7 µM | NCI-H226 16.7 µM | COLO 205 12.3 µM | HCT-116 10.9 µM | RPMI-8226 10.5 µM | MOLT-4 7.29 µM | NCI-H460 13.7 µM | SNB-19 19.5 µM | SK-MEL-28 24.3 µM | KM12 15.7 µM | SN12C 12.2 µM | NCI-H522 13 µM | A549 10.4 µM | UO-31 15 µM | SW-620 19.4 µM

Cc1cc2c(c(C#N)c1C)NC(=O)CCC2=O
inactive: SF-295 > 100 µM | K562 > 100 µM | IGROV-1 > 100 µM | HCC 2998 > 100 µM | COLO 205 > 100 µM | HCT-116 > 100 µM | RPMI-8226 > 100 µM | MOLT-4 > 100 µM | NCI-H460 > 100 µM | SR > 100 µM | SK-MEL-28 > 100 µM | KM12 > 100 µM | SN12C > 100 µM | A549 > 100 µM | UO-31 16.5 µM | SW-620 > 100 µM

N#CC1(c2ccccc2)CCN(C2(c3ccccc3)CCCCC2)CC1
inactive: SF-295 > 100 µM | K562 > 100 µM | IGROV-1 > 100 µM | HCC 2998 > 100 µM | LOX IMVI > 100 µM | NCI-H226 > 100 µM | COLO 205 > 100 µM | HCT-116 > 100 µM | RPMI-8226 > 100 µM | MOLT-4 > 100 µM | SNB-19 > 100 µM | SR > 100 µM | SK-MEL-28 > 100 µM | KM12 > 100 µM | SN12C > 100 µM | A549 > 100 µM | UO-31 > 100 µM | SW-620 > 100 µM

NC(Cc1ccccc1)(C(=O)O)C(=O)O
inactive: SF-295 > 100 µM | K562 > 100 µM | IGROV-1 > 100 µM | HCC 2998 > 100 µM | LOX IMVI > 100 µM | NCI-H226 > 100 µM | COLO 205 > 100 µM | HCT-116 > 100 µM | RPMI-8226 > 100 µM | MOLT-4 > 100 µM | NCI-H460 > 100 µM | SNB-19 > 100 µM | SK-MEL-28 > 100 µM | KM12 > 100 µM | SN12C > 100 µM | NCI-H522 > 100 µM | A549 > 100 µM | UO-31 > 100 µM | SW-620 > 100 µM

C1=Cc2nc1c(-c1ccncc1)c1ccc([n-]1)c(-c1ccncc1)c1nc(c(-c3ccncc3)c3ccc([n-]3)c2-c2ccncc2)C=C1.[Zn+2]
inactive: SF-295 > 100 µM | K562 > 100 µM | IGROV-1 > 100 µM | HCC 2998 > 100 µM | LOX IMVI > 100 µM | NCI-H226 > 100 µM | COLO 205 > 100 µM | HCT-116 > 100 µM | RPMI-8226 > 100 µM | MOLT-4 > 100 µM | NCI-H460 > 100 µM | SNB-19 > 100 µM | SK-MEL-28 > 100 µM | KM12 > 100 µM | SN12C > 100 µM | NCI-H522 > 100 µM | A549 > 100 µM | UO-31 > 100 µM | SW-620 > 100 µM

C[C@@H]1CC[C@@]2(C)OC(c3ccccc3)[C@H](CO)N2C1=O (some centres not stated)
inactive: SF-295 > 100 µM | K562 > 100 µM | IGROV-1 > 100 µM | LOX IMVI > 100 µM | COLO 205 > 100 µM | HCT-116 > 100 µM | RPMI-8226 > 100 µM | NCI-H460 > 100 µM | SNB-19 > 100 µM | SR > 100 µM | SK-MEL-28 > 100 µM | KM12 > 100 µM | SN12C > 100 µM | A549 > 100 µM | SW-620 > 100 µM

COc1cc2cc3c4cc(OC)c(OC)cc4cc[n+]3c(C)c2cc1OC [CORALYNE]
inactive: SF-295 28.6 µM | K562 91.4 µM | IGROV-1 37.3 µM | HCC 2998 42.7 µM | LOX IMVI > 100 µM | NCI-H226 30.4 µM | COLO 205 47.3 µM | HCT-116 > 100 µM | RPMI-8226 > 100 µM | MOLT-4 > 100 µM | NCI-H460 38.9 µM | SNB-19 13.4 µM | SK-MEL-28 > 100 µM | KM12 88.7 µM | SN12C 5.74 µM | NCI-H522 40 µM | A549 > 100 µM | UO-31 > 100 µM | SW-620 58.7 µM

CN[C@@H](C)[C@@H](O)c1ccccc1 [PSEUDOEPHEDRINE HYDROCHLORIDE]
inactive: SF-295 > 100 µM | K562 > 100 µM | IGROV-1 > 100 µM | HCC 2998 > 100 µM | LOX IMVI > 100 µM | NCI-H226 > 100 µM | COLO 205 > 100 µM | HCT-116 > 100 µM | RPMI-8226 > 100 µM | MOLT-4 > 100 µM | NCI-H460 > 100 µM | SNB-19 > 100 µM | SK-MEL-28 > 100 µM | KM12 > 100 µM | SN12C > 100 µM | NCI-H522 > 10 µM | A549 > 100 µM | UO-31 > 100 µM | SW-620 > 100 µM
